Results from US20130324556A1, “Protease Activated Receptor 2 (PAR2) Antagonists” (priority 2011, published 2013).
Counter-ions that a name gives are not always drawn. Like-named read-outs stand apart in the source and are kept apart here.

Molecular target: T1, human PAR2 receptor (Homo sapiens, UniProt P55085)
T1 construct: expressed in transfected cells; host or cells: 1321N1 cells
T1 sequence (P55085 26-397): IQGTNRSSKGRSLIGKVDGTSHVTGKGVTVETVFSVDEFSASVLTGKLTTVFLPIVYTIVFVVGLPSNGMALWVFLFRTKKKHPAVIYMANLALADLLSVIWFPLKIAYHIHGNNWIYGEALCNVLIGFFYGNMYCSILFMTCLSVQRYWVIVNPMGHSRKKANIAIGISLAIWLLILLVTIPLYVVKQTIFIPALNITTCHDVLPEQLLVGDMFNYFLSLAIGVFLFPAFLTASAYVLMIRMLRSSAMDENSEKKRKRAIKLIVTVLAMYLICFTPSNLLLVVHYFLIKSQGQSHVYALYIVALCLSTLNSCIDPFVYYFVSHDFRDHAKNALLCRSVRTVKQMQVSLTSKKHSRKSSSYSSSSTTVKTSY
Test: PAR2 antagonist activity, calcium flux FLIPR assay (trypsin challenge)
Assay type: cell-based
Description: The PAR2 receptor couples through the Gq signaling pathway and results in activation of calcium mobilization. The functional activity of test compounds was routinely tested by measuring the ability of compounds to antagonize PAR2 (trypsin challenge) activity in a dose dependent manner, in 1321N1 cells transfected with the human PAR2 receptor, using a calcium flux Fluorescent Imaging Plate Reader FLIPR assay.
Briefly, test compounds were dissolved in DMSO to a concentration of 20 mM and stored in matrix screenmate racks. […] The compounds were then transferred to 384-well assay plates ready for use. […] The assay buffer used was HBSS buffer supplemented with 20 mM HEPES and 0.1% BSA (protease free), pH7.4. The loading/wash buffers were the same as the assay buffer.
Sub-cultivations were performed every 2-3 d. […] After washing, the cells were loaded with Fluo-4 AM dye (Molecular probes) at 2 μM containing 0.48 μg/mL pluronic acid for 60 min at 37° C. under 5% CO2.
A combined agonist/antagonist protocol was used to measure changes in intracellular calcium concentration. Compound (antagonist) was added to the cell plate using a Fluorometric Imaging Plate Reader (FLIPR) (Molecular Devices, Sunnyvale, Calif., USA). Basal fluorescence was recorded every second for 10 seconds prior to compound addition (10 μl) and fluorescence recorded every second for 1 min then every 6 seconds for a further 1 min. Trypsin (EC50 concentration) was then added using the FLIPR and fluorescence recorded as described above. Curve-fitting and parameter estimation were carried out using GraphPad Prism 4.0 (GraphPad Software Inc., San Diego, Calif.).

[1] = 1321N1 cells transfected with the human PAR2 receptor, trypsin (EC50 concentration) challenge, calcium flux FLIPR, read-out: PAR2 IC50

Row | SMILES | IC50 [1] [µM] | IC50 [µM]
1 | NCc1ccc(CNC(=O)N2CCC(Cc3ccccc3)CC2)cc1 [Example 1, (4-{[(4-Benzylpiperidin-1-yl)carbonylamino]methyl}phenyl)methanaminium chloride] | 5 to 20 | –
2 | COc1cccc(CC2CCN(C(=O)NCc3ccc(CN)cc3)CC2)c1 [Example 2, 2,2,2-Trifluoroacetic acid; N-{[4-(aminomethyl)phenyl]methyl}-4-[(3-methoxyphenyl)methyl] piperidine-1-carboxamide] | 20 to 50 | –
3 | COc1ccc(CC2CCN(C(=O)NCc3ccc(CN)cc3)CC2)cc1 [Example 3, 2,2,2-Trifluoroacetic acid; N-{[4-(aminomethyl)phenyl]methyl}-4-[(4-methoxyphenyl)methyl] piperidine-1-carboxamide] | < 5 | –
4 | NCc1ccc(CNC(=O)N2CCC(Cc3cccc(F)c3)CC2)cc1 [Example 4, 2,2,2-Trifluoroacetic acid; N-{[4-(aminomethyl)phenyl]methyl}-4-[(3-fluorophenyl)methyl] piperidine-1-carboxamide] | < 5 | –
5 | NCc1ccc(CNC(=O)N2CCC(Cc3ccc(F)cc3)CC2)cc1 [Example 5, N-{[4-(Aminomethyl)phen-yl]methyl}-4-[(4-fluorophenyl)methyl]piper-idine-1-carboxamide hydrochloride] | < 5 | –
6 | NCc1ccc(CNC(=O)N2CCC(Cc3ccc(Cl)cc3)CC2)cc1 [Example 6, 2,2,2-Trifluoroacetic acid; N-{[4-(aminomethyl)phenyl]methyl}-4-[(4-chlorophenyl)methyl] piperidine-1-carboxamide] | < 5 | –
7 | Cc1ccc(CC2CCN(C(=O)NCc3ccc(CN)cc3)CC2)cc1 [Example 7, 2,2,2-Trifluoroacetic acid; N-{[4-(aminomethyl)phenyl]methyl}-4-[(4-methylphenyl)methyl] piperidine-1-carboxamide] | 5 to 20 | –
8 | NCc1ccc(CNC(=O)N2CCC(Cc3ccccn3)CC2)cc1 [Example 8, N-{[4-(Aminomethyl)phen-yl]methyl}-4-(pyridin-2-ylmethyl)piperidine-1-carboxamide] | 5 to 20 | –
9 | NCc1ccc(CNC(=O)N2CCC(Cc3cccnc3)CC2)cc1 [Example 9, N-{[4-(Aminomethyl)phen-yl]methyl}-4-(pyridin-3-ylmethyl)piperidine-1-carboxamide] | 20 to 50 | –
10 | NCc1ccc(CNC(=O)N2CCC(Cc3ccncc3)CC2)cc1 [Example 10, N-{[4-(Aminomethyl)phen-yl]methyl}-4-(pyridin-4-ylmethyl)piperidine-1-carboxamide] | 5 to 20 | –
11 | NCc1ccc(CNC(=O)N2CCC(Oc3ccccc3)CC2)cc1 [Example 11, N-{[4-(Aminomethyl)phen-yl]methyl}-4-phenoxypiperidine-1-carboxamide] | 20 to 50 | –
12 | NCc1ccc(CNC(=O)N2CCC(Oc3ccc(F)cc3)CC2)cc1 [Example 12, N-{[4-(Aminomethyl)phen-yl]methyl}-4-(4-fluorophenoxy)piperidine-1-carboxamide] | 5 to 20 | –
13 | NCc1ccc(CNC(=O)N2CCC(Oc3ccccc3Cl)CC2)cc1 [Example 13, N-{[4-(Aminomethyl)phen-yl]methyl}-4-(2-chlorophenoxy)piperidine-1-carboxamide hydrochloride] | 20 to 50 | –
14 | NCc1ccc(CNC(=O)N2CCC(Oc3cccc(Cl)c3)CC2)cc1 [Example 14, N-{[4-(Aminomethyl)phen-yl]methyl}-4-(3-chlorophenoxy)piperidine-1-carboxamide hydrochloride] | 20 to 50 | –
15 | NCc1ccc(CNC(=O)N2CCC(Oc3ccc(Cl)cc3)CC2)cc1 [Example 15, N-{[4-(Aminomethyl)phen-yl]methyl}-4-(4-chlorophenoxy)piperidine-1-carboxamide hydrochloride] | 20 to 50 | –
16 | NCc1ccc(CNC(=O)N2CCC(Sc3ccccc3)CC2)cc1 [Example 16, N-{[4-(Aminomethyl)phen-yl]methyl}-4-(phenylsulfanyl)piperidine-1-carboxamide hydrochloride] | 5 to 20 | –
17 | NCc1ccc(CNC(=O)N2CCC(Nc3ccccc3Cl)CC2)cc1 [Example 17, N-{[4-(Aminomethyl)phen-yl]methyl}-4-[(2-chlorophenyl)amino]piper-idine-1-carboxamide dihydrochloride] | – | < 5

Row | SMILES | IC50 [1] [µM] | IC50 [µM]
18 | NCc1ccc(CNC(=O)N2CCC(C(=O)c3ccc(F)cc3)CC2)cc1 [Example 18, 2,2,2-Trifluoroacetic acid;- N-{[4-(aminomethyl)phenyl]methyl}-4-[(4-fluorophenyl)carbonyl] piperidine-1-carboxamide] | 5 to 20 | –
19 | NCc1ccc(CNC(=O)N2CCC(C(O)c3ccc(F)cc3)CC2)cc1 (stereo not shown) [Example 19, N-{[4-(Aminomethyl)phen-yl]methyl}-4-[(4-fluorophenyl)(hydroxy)meth-yl] piperidine-1-carboxamide] | 5 to 20 | –
20 | NCc1ccc(CNC(=O)N2CCC(c3ccccc3)CC2)cc1 [Example 20, N-{[4-(Aminomethyl)phen-yl]methyl}-4-phenylpiperidine-1-carboxamide hydrochloride] | 20 to 50 | –
21 | NCc1ccc(CNC(=O)N2CCCC(Cc3ccccc3)C2)cc1 (stereo not shown) [Example 21, 2,2,2-Trifluoroacetic acid; N-{[4-(aminomethyl)phenyl]methyl}-3-benzylpiperidine-1-carboxamide] | 50 to 100 | –
22 | NCc1ccc(CNC(=O)N2CCC(CCc3ccccc3)CC2)cc1 [Example 22, N-{[4-(Aminomethyl)phen-yl]methyl}-4-(2-phenylethyl)piperidine-1-carboxamide] | 20 to 50 | –
23 | NCc1ccc(CNC(=O)C2CCN(Cc3cccc(F)c3)CC2)cc1 [Example 23, N-{[4-(Aminomethyl)phen-yl]methyl}-1-[(3-fluorophenyl)methyl]piper-idine-4-carboxamide] | 5 to 20 | –
24 | NCc1ccc(CNC(=O)N2CCN(Cc3ccccc3)CC2)cc1 [Example 24, N-{[4-(Aminomethyl)phen-yl]methyl}-4-benzylpiperazine-1-carboxamide] | 5 to 20 | –
25 | NCc1ccc(CNC(=O)N2CCN(Cc3ccccc3Cl)CC2)cc1 [Example 25, N-{[4-(Aminomethyl)phen-yl]methyl]-4-[(2-chlorophenyl)meth-yl]piperazine-1-carboxamide di-hydrochloride] | 5 to 20 | –
26 | NCc1ccc(CNC(=O)N2CCN(C(=O)c3ccccc3)CC2)cc1 [Example 26, 2,2,2-Trifluoroacetic acid; N-{[4-(aminomethyl)phenyl]methyl}-4-benzoylpiperazine-1-carboxamide] | 20 to 50 | –
27 | NCc1ccc(CNC(=O)N2CCN(c3ccccc3)CC2)cc1 [Example 27, N-{[4-(Aminomethyl)phen-yl]methyl}-4-phenyl piperazine-1-carboxamide dihydrochloride] | 20 to 50 | –
28 | NCc1ccc(CNC(=O)N2CCC(Cc3ccccc3)C2)cc1 (stereo not shown) [Example 28, N-{[4-(Aminomethyl)phen-yl]methyl}-3-benzylpyrrolidine-1-carboxamide] | 20 to 50 | –
29 | NCc1ccc(CNC(=O)N2CCC(c3ccccc3)C2)cc1 (stereo not shown) [Example 29, 2,2,2-Trifluoroacetic acid; N-{[4-(aminomethyl)phenyl]methyl}-3-phenylpyrrolidine-1-carboxamide] | 50 to 100 | –
30 | CN(Cc1ccc(CN)cc1)C(=O)N1CCC(Cc2ccccc2)CC1 [Example 30, 2,2,2-Trifluoroacetic acid; N-{[4-(aminomethyl)phenyl]methyl}-4-benzyl-N-methylpiperidine-1-carboxamide] | 50 to 100 | –
31 | NCc1ccc(CNC(=O)N2CCC(C(=O)N3CCCCC3)CC2)cc1 [Example 31, N-{[4-(Aminomethyl)phen-yl]methyl}-4-[(piperidin-1-yl)carbon-yl]piperidine-1-carboxamide hydrochloride] | 50 to 100 | –
32 | NCc1ccc(CNC(=O)N2CCC(C(=O)N3CCc4ccccc43)CC2)cc1 [Example 32, 2,2,2-Trifluoroacetic acid; N-{[4-(aminomethyl)phenyl]methyl}-4-[(2,3-dihydro-1H-indol-1-yl)carbonyl]piper-idine-1-carboxamide] | 50 to 100 | –
33 | NCc1ccc(CNC(=O)N2CCC(n3c(=O)[nH]c4ccccc43)CC2)cc1 [Example 33, N-{[4-(Aminomethyl)phen-yl]methyl}-4-(2-oxo-2,3-dihydro-1H-1,3-benzodiazol-1-yl)piperidine-1-carboxa-mide hydrochloride] | 20 to 50 | –
34 | NCc1ccc(CNC(=O)N2CCC(c3nc4ccccc4o3)CC2)cc1 [Example 34, N-{[4-(Aminomethyl)phen-yl]methyl}-4-(1,3-benzoxazol-2-yl)pipe-ridine-1-carboxamide] | < 5 | –
